# From US9834535B2, “Sulfamate derivative compounds for use in treating or alleviating pain” (Bio-Pharm Solutions Co., Ltd., priority 2013, dated 2017)
# Assays:
# [1] = system: acetic acid-induced writhes (abdominal constriction); test: Writhing test (0.6% acetic acid); format: in vivo, ICR mice; details: mouse, oral, 0.5 h; read-out: Writ htest: ED50
# Method: To examine the pain relief effect of the sulfamate derivative compounds, a writhing test was conducted in general pain animal model referring to Fischer, L. G. et al. (2008).
# (§1) ICR mice (male, 24-28 g; Orient Bio, Korea) were habituated before test in test room for 1 hour. Animals were fasted 2 hr, before administration of compounds. Compounds was orally administered at the close of 20 mg/kg, 10 ul/g, bw (n=3˜5/group). All compounds were dissolved in a vehicle of 30% (v/v) PEG 400 or 20% (v/v) Tween 80. The control group was treated the vehicle without compounds.
# […] Animals were habituated in the cage for 5 min. 5 min after habituation, the number of writhes (abdominal constriction) for 15 min was counted referring to Korzeniewska-Rybicka, I. et al. (1998) and compared with that of a control.
# SNL model = test: Antiallodynic activity on Chung model (SNL, spinal nerve ligation; von Frey); format: in vivo, Sprague-Dawley rats; details: rat, oral, von Frey, 1 h
# Method: Male. Sprague-Dawley rats (200-220 g, Orient Bio, Korea) were habituated for 1 week before the experiment and allowed free access to food and water throughout the experimentation. Room temperature and humidity were maintained at 24±2° C. and 50±10%, respectively. Neuropathic surgery (SNL, Spinal nerve ligation) model was clone as described in Kim and Chung (1992). Briefly, animal under gaseous anesthesia with isoflurane a 4:4 flow ratio of NO2. The left lumber spinal nerve L5 and L6 were isolated and tightly ligated with 4-0 silk thread. The wound was treated with a gentamicin antibiotics solution (4 mg/kg, 4 ul/g, bw), and the wound muscle was closed with cat cut chrom 4/0 thread and skin was closed dafilon 4/0 tread. Sham controls were prepared in the same manner as the spinal nerves were exposed, but no ligated L5 and L6 nerves. But, vehicle controls were identical to SNL model, except for administration of vehicles.
# Tactile sensitivity (Mechanical allodynia) was evaluated using von Frey monofilaments before and after treatment and animals were used withdrawal threshold value was less than 4 g. One week after surgery, SNL-operated animals (n=4˜6), sham-operated animals (n=4˜10) and vehicle-operated animals (n=4˜13) were tested for tactile sensitivity with von Frey monofilaments 3 trials in each animal. All Animals were placed in a stainless steel mashed chamber and habituated for 30 min in the test box. The tactile sensitivity for ipsilateral hind paw was measured using the up-and-down method (Dixon, 1980) with seven von Frey monofilaments (0.4, 1, 2, 4, 6, 8, and 15 g) to 3 trials. Tactile sensitivity test was followed by Dixon's method (Dixon, 1980). The 50% paw withdrawal threshold for each paw was calculated using the following formula: [Xth] log=[vFr] log+ky where [vFr] is the force of the last von Frey used, k=0.2249 which is the average interval (in log units) between the von Frey monofilaments, and y is a value that depends upon the pattern of withdrawal responses (Dixon, 1980).
# All animals were fasted 18 h before the administration of the compounds. The antiallodynic effect of the compounds were evaluated at the various dose (n=5˜6), orally administrated in a volume of 5 ul/g, bw in a vehicle of 30% (v/v) PEG 400 or 20% (v/v) Tween 80 or Saline. […]
# The relative values compared to the sham group (% control) were calculated and shown in Table 5, which show an antiallodynic effect of the test compounds on SNL model in rats.
# CFA-induced pain model = test: Antiallodynic activity on Complete Freund's Adjuvant (CFA)-induced inflammatory pain model (von Frey); format: in vivo, Sprague-Dawley rats; details: ip; rat, intraperitoneal, von Frey, 0.5 h
# [2] = system: hot plate withdrawal latency; test: Hot-plate test; format: in vivo, ICR mice; details: 200 mg/kg, mouse, oral
# Method: To examine the pain relief effect of the sulfamate derivative compounds, a hot-plate test was conducted in general pain animal model referring to Current Protocols in Neuroscience; Behavioral Neuroscience Unit 8.9.
# as §1, with “30-35 g:” for “24-28 g;”, “hr” for “hr,”, “Compounds was orally administered at the close of 20 mg/kg, 10 ul/g, bw (n=3˜5/group).” left out
# […] (Hu, X. et al, 2008), and then, measured as the withdrawal latency (cut-off time: 30 sec) time until the point when each mouse was taking off a paw from the plate, shaking, licking a paw or hind leg, or jumping from the plate.
structure (smiles),measurement,setting,value
"CC1(C)O[C@@H](COS(N)(=O)=O)[C@H](c2ccccc2Cl)O1 [Example 2, ((4S,5S)-5-(2-chlorophenyl)-2,2-dimethyl-1,3-dioxolan-4-yl)methyl sulfamate]",ED50,[1],28.4 mg/kg
same,ED50,SNL model,18.2 mg/kg
same,ED50,CFA-induced pain model,5.9 mg/kg
same,Hot plate test: effect (%) at the concentration administered,[2],^#200 (123.6%)
